From patent US10364415B2, “1,4-dioxane-degrading bacteria culture method, medium, and 1,4-dioxane treatment method using 1,4-dioxane-degrading bacteria” (TAISEI CORPORATION, priority 2014, dated 2019)

Tests used:
[1] = tested on: strain CB1190, strain D11, and strain D17; assay: Proliferation of 1,4-dioxane-degrading bacteria in the presence of diethylene glycol (Example 1); assay type: cell-based; details: 28° C., nine days
Method: Strain CB1190, strain D11, and strain D17 were used as 1,4-dioxane-degrading bacteria. Each degradation bacterium was cultured for ten days using a CGY medium (casitone: 5 g/L, glycerin: 5 g/L, yeast extract: 1 g/L) containing 1,4-dioxane at a concentration of 500 mg/L. After cultivation, the bacterial cells were harvested and washed with a centrifugal separator, and then mixed with 20 mL of physiological saline, in such a manner that an inoculum suspension was obtained. It should be noted that an inoculum suspension (OD600: approximately 10) which was turbidity-standardized using a spectrophotometer was used as the inoculum suspension. […]
The bacterial cells in the culture solution were collected as […] by suction filtration after the culture was finished. Then, the […] was dried at 105° C. overnight, and the weight of the bacterial cells was measured, in such a manner that the bacterial cell concentration (mg-dry cell/L) was obtained. Proliferation of the bacterial cells was evaluated by Δ bacterial cell concentration obtained by subtracting the initial bacterial cell concentration from the bacterial cell concentration on the ninth day of culture. […]

[2] = tested on: SDIMO-bearing bacteria; assay: PCR detection of SDIMO gene in contaminated soil cultured with diethylene glycol (Example 9); assay type: cell-based; details: seven contaminated soil samples, diethylene glycol 20 g/L, six days
Method: The proliferation of SDIMO-bearing bacteria by culturing in a medium supplemented with diethylene glycol was investigated in seven types of soil collected from different places at sites contaminated with 1,4-dioxane. It should be noted that the proliferation of SDIMO-bearing bacteria was evaluated by an increase in PCR amplification products of about 420 bp derived from a SDIMO-encoding gene (a SDIMO gene).
The soil with a wet weight of 10 g was added to an Erlenmeyer flask of 300 ml in which the liquid medium of 90 ml (medium composition: K2HPO4: 1 g/L, (NH4)2SO4: 1 g/L, NaCl: 50 mg/L, MgSO4.7H2O: 200 mg/L, FeCl3: 10 mg/L, CaCl2: 50 mg/L, pH: 7.0) was placed. Then, diethylene glycol was added such that the final concentration became 20 g/L and the rotary shaking culture was carried out at 28° C. and 120 rpm.
The samples were collected immediately after diethylene glycol was added and after six days by 5 ml, respectively, and a supernatant was removed by centrifugation (10,000×g, 4° C., 5 min), and then DNA was recovered from the soil of 0.5 g (of wet weight). For DNA extraction, a soil DNA extraction kit (manufactured by Nippon Gene Co., Ltd., product name: ISOIL for Beads Beating) was used and the extracted DNA was purified using a DNA fragment purification kit (Toyobo Co., Ltd., product name: MagExtractor-PCR & Gel Clean up-). […]

[3] = tested on: strain D17; assay: Bacterial cell concentration measurement at different diethylene glycol concentrations (Examples 3 to 7); assay type: cell-based, Pseudonocardia sp. D17; details: diethylene glycol increased from 1 g/L to 10 g/L, seven days
Method: 100 mL of a liquid medium (medium composition: K2HPO4: 1 g/L, (NH4)2SO4: 1 g/L, NaCl: 50 mg/L, MgSO4.7H2O: 200 mg/L, FeCl3: 10 mg/L, CaCl2: 50 mg/L, pH: 7.3) containing diethylene glycol of 1 g/L was added to an Erlenmeyer flask equipped with baffles with a volume of 300 mL. Next, strain D17 which was inoculated in the MGY medium in advance was cultured (initial bacterial cell concentration: 111 mg-dry cell/L) and was subjected to the rotary shaking culture at 28° C. and 120 rpm for seven days.
Degradation bacteria were cultured in the same manner as in Example 3 except that the concentration of diethylene glycol in the liquid medium was set to be 5 g/L. […]
The bacterial cells in the culture solution were collected as a filter residue through suction filtration after the cultivation was finished and the bacterial cells were dried at 105° C. overnight, and then the weight of the collected bacterial cells was measured. The bacterial cell concentration (mg-dry cell/L) was obtained from the value of the measured bacterial cell weight. […] The proliferation property of the bacterial cells was evaluated by Δ bacterial cell concentration which was obtained by subtracting the initial bacterial cell concentration from the bacterial cell concentration on the seventh day of culturing.

OCCOCCO [diethylene glycol]
proliferation properties (Δ bacterial cell concentration) ([1]; diethylene glycol 1 g/L as carbon source, all three degradation bacteria): could grow using diethylene glycol as a carbon source | proliferation properties (Δ bacterial cell concentration) ([1]; diethylene glycol 1 g/L, strain D17): extremely high proliferation properties | PCR amplification product of about 420 bp (SDIMO gene) before and after culturing [2]: preferentially proliferated SDIMO-bearing bacteria | bacterial cell concentration [3]: increased
